Common to all, as to assay type: cell-based
Assay [1] concerns SF539 human gliosarcoma cells. Description: Cell kill screening, CellTiter Glo viability assay, SF539. The note with it: 24 hours treatment, 0.5% serum and 0.05% DMSO, relative to untreated control; for viability at 50 µM: SF-539, 50 μM, read-out: % avg live cells @ 50 μM (% Viable Cells Remaining); for viability at 100 µM: SF-539, 100 μM, read-out: % avg live cells @ 100 μM (% Viable Cells Remaining). From the text: (§1) The objective of this investigation was to assess the in vitro cell killing activities of analogs of lipoic acid in BXPC3 human pancreatic, 11460 non small lung carcinoma, and SF539 human gliosarcoma cancer cells.
(§2) Three human tumor cell types, BXPC3 human pancreatic cancer, H460 non small lung carcinoma, and SF539 human gliosarcoma, were used in this investigation. The BXPC3 and H460 cells were originally obtained from American Type Cell Culture (ATCC). The SF539 cells were originally obtained from the NCI AIDS and Cancer Specimen Bank (ACSB). All tumor cells were maintained at 37° C. in a humidified 5% CO2 atmosphere in T75 tissue culture flasks containing 20 mL of Roswell Park Memorial Institute (RPMI) 1640 containing 2 mM L-glutamine, 10% FBS and 1% penicillin and streptomycin (100 IU/mL penicillin and 100 μg/mL streptomycin). The tumor cells were split at a ratio of 1:5 every 4-5 days by trypsinization and resuspended in fresh medium in a new flask. Cells were harvested for experiments at 70-90% confluency.
(§3) Stock solutions of each analog were prepared at a concentration of 200 and 100 mM in DMSO. Five μL of this solution was diluted in 10.0 mL of 0.5% serum containing RPMI media to give the desired 100 μM and 50 μM solutions in 0.05% DMSO.
(§4) The cancer cells were seeded at 4000 cells/well for H460 cells and 6000 cells/well for BXPC3 and SF 539 cells and incubated 24 hours. The killing activity of analogs was assayed at 50 μM and 100 μM concentrations. The tumor cells were treated for 24 hours with the test article, and after 24 hours of treatment the number of viable tumor cells was determined using the CTG assay.
(§5) The number of cells targeted for the study is 4×10^3 per well for H460 cells and 6×10^3 per well for BXPC3 and SF539 cells in 100 μL of medium. The actual number of cells were counted and seeded in the wells of a 96 well-plate. The cells were incubated for approximately 24 hours before addition of test article.
(§6) The media in the plate was removed by aspiration, and 100 μL of the test article at a final concentration of 50 μM or 100 μM was added to the cells. After exposure to the test articles for 24 hours, the number of viable cells in each well was determined and the percent of viable cells relative to control (in the absence of test article) were calculated. Additionally, a set of wells was treated with cell culture medium in the absence of cells to obtain a value for background luminescence. A separate set of cells was seeded at the same time in a clear 96-well plate and observed under the microscope at 24 hours, following addition of the test article to estimate the amount of cells present after treatment.
(§7) The number of viable cells was determined by using the CTG assay. Specifically, reagents were mixed and allowed to come to room temperature according to instructions from Promega, Inc. (Madison, Wis.). Cell plates were removed from the cell culture incubator and left on the bench for thirty minutes until they reached room temperature. 100 μL per well of CTG reagent was added with the 12-channel Eppendorf pipettor. The cells were lysed by shaking the plate for two minutes in a shaker. The cells were kept in room temperature for ten minutes to stabilize the luminescent signal. The luminescence was measured using the FLUOstar OPTIMA plate reader (BMG Labtech, Inc., Durham, N.C.).
(§8) Data from luminescence readings was copied onto EXCEL spreadsheets, and cell growth relative to untreated cells was calculated, using the following equation: […]
(Cellular ATP, detected with luciferase, serves as a proxy for viable cell number.)

In assay [2] the test system is BXPC3 human pancreatic cancer cells. Nature of the assay: Cell kill screening, CellTiter Glo viability assay, BXPC3. The note with it: 24 hours treatment, 0.5% serum and 0.05% DMSO, relative to untreated control; for viability at 50 µM: BXPC-3, 50 μM, read-out: % avg live cells @ 50 μM (% Viable Cells Remaining); for viability at 100 µM: BXPC-3, 100 μM, read-out: % avg live cells @ 100 μM (% Viable Cells Remaining).
Text: as §1, §2, §3, §4, §5, §6, §7, §8

Assay [3] concerns H460 non small lung carcinoma cells. Nature of the assay: Cell kill screening, CellTiter Glo viability assay, H460. The conditions noted are these: Homo sapiens, 24 hours treatment, 0.5% serum and 0.05% DMSO, relative to untreated control; for viability at 50 µM: NCI-H460, 50 μM, read-out: % avg live cells @ 50 μM (% Viable Cells Remaining); for viability at 100 µM: NCI-H460, 100 μM, read-out: % avg live cells @ 100 μM (% Viable Cells Remaining).
Text: as §1, §2, §3, §4, §5, §6, §7, §8

For the compound `O=CCCCCC(CCSCc1ccccc1)SCc1ccccc1` (stereo not shown) [A], the viability at 50 µM is 29.4% in assay [1], 37.6% in assay [2] and 44.9% in assay [3]. For the same compound, the viability at 100 µM was 28.1% in assay [1], 26.3% in assay [2] and 29.9% in assay [3].
On to `O=C(O)CCCCCCC(CCSCc1ccccc1)SCc1ccccc1` (stereo not shown) [C], for which the viability at 50 µM came to 5% in assay [1], 2% in assay [2] and 3% in assay [3]. Further, the viability at 100 µM was 20% in assay [1], 6% in assay [2] and 15% in assay [3].
In the case of `O=C(O)/C=C/CCCCC(CCSCc1ccccc1)SCc1ccccc1` (stereo not shown) [D], in assay [1], the viability at 50 µM amounted to 9.9% and the viability at 100 µM was determined as 0%. Also, in assay [3], the viability at 50 µM was determined as 15.4% and the viability at 100 µM was found to be 0%.
Turning to `O=C(O)CCCCC(CCNC(=O)OCc1ccccc1)NC(=O)OCc1ccccc1` (stereo not shown) [G], the viability at 50 µM was found to be 97.3% in assay [1], 82% in assay [2] and 89.1% in assay [3]. In addition, the viability at 100 µM amounted to 79.6% in assay [1], 72.6% in assay [2] and 87% in assay [3].
As for `O=C(CCCCC(CCSCc1ccccc1)SCc1ccccc1)OCc1ccccc1` (stereo not shown) [H], the viability at 50 µM was found to be 97% in assay [1], 92% in assay [2] and 110% in assay [3]. Further, the viability at 100 µM in assay [1] amounted to 95%; in assay [2], 84%; in assay [3] it was 101%.
For `NC(=O)CCCCC(CCSCc1ccccc1)SCc1ccccc1` (stereo not shown) [I], the viability at 50 µM in assay [1], in assay [2] and in assay [3] was 1% in each case. The viability at 100 µM in assay [1] was found to be 1%; in assay [2] it was 0%; in assay [3] it was 0%.
Take `O=C(CCCCC(CCSCc1ccccc1)SCc1ccccc1)N1CCOCC1` (stereo not shown) [J]: the viability at 50 µM was 38.2% in assay [1], 8.2% in assay [2] and 37.2% in assay [3]. Further, the viability at 100 µM is 15.9% in assay [1], 4.6% in assay [2] and 15.8% in assay [3].
Consider `O=C(CCCCC(CCSCc1ccccc1)SCc1ccccc1)NCCN1CCOCC1` (stereo not shown) [K], for which the viability at 50 µM in assay [1] worked out at 0%; in assay [2], 1%; in assay [3], 0%. The viability at 100 µM in assay [1], in assay [2] and in assay [3] was 0% throughout.
As to `CCN(CC)C(=O)CCCCC(CCSCc1ccccc1)SCc1ccccc1` (stereo not shown) [L], the results for the viability at 50 µM in assay [1], in assay [2] and in assay [3] were 58%, 28% and 58%, respectively. Further, the figures for the viability at 100 µM in assay [1], in assay [2] and in assay [3] were 32%, 14% and 18%, respectively.
Turning to `CCN(CC)CCNC(=O)CCCCC(CCSCc1ccccc1)SCc1ccccc1` (stereo not shown) [M], the viability at 50 µM came out at 3.1% in assay [1], 10.8% in assay [2] and 20.5% in assay [3]. Also, the viability at 100 µM in assay [1] was 1.9%; in assay [2] it was 1.4%; in assay [3] it was 8.5%.
For the compound `O=C(CCCCC(CCSCc1ccccc1)SCc1ccccc1)NCCS(=O)(=O)O` (stereo not shown) [N], the viability at 50 µM amounted to 104% in assay [1], 126% in assay [2] and 119% in assay [3]. Also, the viability at 100 µM is 75% in assay [1], 95% in assay [2] and 89% in assay [3].

The values above are taken from patent publication US10450337B2, “Pharmaceutical compounds” (Rafael Pharmaceuticals, Inc., priority 2014, dated 2019).
